Results published in patent US20100256196A1, “Biomarkers for Atherosclerosis” (IKFE, priority 2008, published 2010).

Experiments:
[1] = tested on: MIF; conditions: six week treatment, eight non-diabetic patients with obesity; cited from earlier work
[2] = tested on: patients with type 2 diabetes and established atherosclerosis; assay: Clinical and biochemical observation parameters, double-blind placebo-controlled study, 4 weeks add-on treatment; assay type: in vivo, human; conditions: mean ± SD; for Glucose: fasting; for HOMAIR: insulin resistance score; for IL-6 / MIF / MMP-9: plasma protein; for Adiponectin / Angiotensin II / Complement factor C3 / Insulin / Intact proinsulin / P-seclectin / sCD40L: plasma
[3] = tested on: NFκB and NFκB-modulated cytokines in circulating peripheral mononuclear cells; assay: mRNA expression in circulating mononuclear cells (CD14+ monocytes/macrophages), calibrator-normalized relative quantification by LightCycler PCR; assay type: in vivo, human; conditions: normalized ratio, reference gene β-actin, mean ± SD
Description: Blood for the measurement of fasting glucose, MMP-9, and hsCRP was taken at baseline and after 3, 7, 10, 14 and 28 days of study treatment. Blood for assessment of the mRNA expression profile of circulating mononuclear cells as well as for assessment of circulating plasma levels of HbAlc, Insulin, Intact Proinsulin, Adiponectin, IL-6, sCD40L, P-Selectin, MIF, Angiotensin II, complement factor 3, and blood lipids were obtained at baseline and at the end of the study. Insulin resistance was calculated using the HOMAIR score at baseline and study endpoint as published previously (29, 30).
Isolation of MNC from whole blood was performed as a density gradient centrifugation by means of the ACCUSPIN System-HISTOPAQUE-1077 (Sigma-Aldrich Chemie GmbH, Steinheim, Germany). The isolation of macrophages and monocytes from the collected cells was performed by MACS magnetic cell sorting with CD14 MicroBeads (human) (Miltenyi Biotec GmbH, Bergisch Gladbach, Germany). The CD14 positive (CD14+) cells (macrophages and monocytes) were first magnetically labeled with MACS CD14 MicroBeads. The cell suspension was loaded on a MS MACS Column which was placed in the magnetic field of a MiniMACS Separator. The magnetically labeled CD14+ cells were retained in the column and separated from the unlabelled cell fraction.
The mRNA isolation from macrophages and monocytes was performed with the High Pure RNA Isolation Kit (Roche Applied Science, Penzberg, Germany). The cells were first lysed and the intact and undegraded RNA was adsorbed to a glass fibre fleece. Simultaneously, RNAses were inactivated. Furthermore, residues of contaminating DNA were digested and the RNA was purified from salts, proteins and other impurities. Purity of the isolated mRNA was assessed by real-time PCR (LightCycler II, Roche Diagnostics, Mannheim, Germany). The transcription of mRNA in cDNA was performed on a thermocycler (Biozym Diagnostik GmbH, Oldendorf, Germany) according to a standardized protocol (‘Transcriptor First Strand cDNA Synthesis Kit’, Instruction Manual Version 1, 2004, Roche Applied Science, Penzberg, Germany).
Sequence specific primers were designed by TIB MOLBIOL (Syntheselabor GmbH, Berlin, Germany) to amplify the gene sequences of Rel-A, p105, IκB-α, IκB-β and IL-6. The primers for TNF-α were taken from “Rapid Cycle Real-Time PCR Methods and Applications Quantification” (31). The primers for MIF and MMP-9 were reproduced from previous reports (12, 32). A list of the primers used for the quantification experiments, the primer-specific PCR protocols and the specific amplification product melting points are provided in Table 1. An additional agarose gel electrophoresis assay was performed to verify the correct length of the amplification products.
The RNA quantification in this study, was performed by means of a calibrator-normalized relative quantification method based on the LightCycler II system (Roche Diagnostics, Mannheim, Germany), where quantification of a target and a reference gene is a function of PCR efficiency and the sample crossing point. The sample crossing point is the amplification cycle during an amplification assay, at which the fluorescence of a probe rises above background fluorescence. This occurs usually at the second derivative maximum (fastest change in fluorescence). […] In these experiments, β-actin is the most abundant protein in eukaryotic cells with constant expression (33). […] The principle of this method is the determination of the relative amount of the target gene and the reference gene for each sample and for the calibrator. […] All experiments were performed in triple replications.
Data are presented as arithmetic mean±standard deviation (SD) for continuous variables or mean±SEM for percent changes from baseline and as the number/proportion of patients for categorical variables.

[4] = in vivo; cited from earlier work
[5] = endpoint, after 4 weeks 45 mg pioglitazone add-on
[6] = endpoint, after 4 weeks of pioglitazone

Q: For `CN(C)C(=N)N=C(N)N` [metformin], which “Plasma concentration of MIF and transcription of MIF mRNA in mononuclear cells” value [1] is on record?
A: Its value is “reduced”.

Q: Which BMI [2, 5] does the source give for `CCc1ccc(CCOc2ccc(CC3SC(=O)NC3=O)cc2)nc1` (stereo not drawn) [pioglitazone] here?
A: The BMI was 31.4 ± 4.5 kg/m^2.

Q: What about the Diastolic blood pressure [2, 5] of the same compound?
A: The Diastolic blood pressure was 80 ± 11 mmHg.

Q: And the HDL cholesterol [2, 5]?
A: Its HDL cholesterol is 1.26 ± 0.26 mmol/L.

Q: And the HbA1c [2, 5]?
A: The HbA1c was 6.8 ± 0.9%.

Q: And the LDL cholesterol [2, 5]?
A: The LDL cholesterol was 2.52 ± 0.76 mmol/L.

Q: And the Systolic blood pressure [2, 5]?
A: Its Systolic blood pressure is 137 ± 18 mmHg.

Q: And the “Total Cholesterol” value [2, 5]?
A: Its value is 4.78 ± 1.09 mmol/L.

Q: And the hsCRP [2, 5]?
A: The hsCRP was 1.9 ± 1.7 mg/L.

Q: What about the sICAM [2, 5] of the same compound?
A: The sICAM was 319 ± 86 µg/L.

Q: And the sVCAM [2, 5]?
A: The sVCAM was 943 ± 452 µg/L.

Q: And the Glucose [2, 5]?
A: The Glucose was 122 ± 35 mg/dL.

Q: And the Glucose ([2]; pioglitazone arm, baseline)?
A: Its Glucose is 142 ± 40 mg/dL.

Q: What about the HOMAIR [2, 5] of the same compound?
A: The HOMAIR was 3.9 ± 2.6.

Q: And the HOMAIR ([2]; pioglitazone arm, baseline)?
A: Its HOMAIR is 5.9 ± 4.4.

Q: And the BMI ([2]; pioglitazone arm, baseline)?
A: The BMI was 31.0 ± 4.3 kg/m^2.

Q: And the Diastolic blood pressure ([2]; pioglitazone arm, baseline)?
A: Its Diastolic blood pressure is 83 ± 11 mmHg.

Q: And the HDL cholesterol ([2]; pioglitazone arm, baseline)?
A: Its HDL cholesterol is 1.18 ± 0.24 mmol/L.

Q: What about the HbA1c ([2]; pioglitazone arm, baseline) of the same compound?
A: The HbA1c was 7.0 ± 1.1%.

Q: What about the LDL cholesterol ([2]; pioglitazone arm, baseline) of the same compound?
A: Its LDL cholesterol is 2.46 ± 0.80 mmol/L.

Q: What about the Systolic blood pressure ([2]; pioglitazone arm, baseline) of the same compound?
A: Its Systolic blood pressure is 144 ± 15 mmHg.

Q: What about the “Total Cholesterol” value ([2]; pioglitazone arm, baseline) of the same compound?
A: The value was 4.63 ± 0.99 mmol/L.

Q: What about the hsCRP ([2]; pioglitazone arm, baseline) of the same compound?
A: Its hsCRP is 2.9 ± 1.7 mg/L.

Q: And the sICAM ([2]; pioglitazone arm, baseline)?
A: Its sICAM is 326 ± 90 µg/L.

Q: And the sVCAM ([2]; pioglitazone arm, baseline)?
A: Its sVCAM is 915 ± 409 µg/L.

Q: What about the IL-6 [2, 5] of the same compound?
A: Its IL-6 is 3.2 ± 0.1 ng/L.

Q: And the MIF [2, 5]?
A: The MIF was 9.6 ± 3.5 µg/L.

Q: What about the MMP-9 [2, 5] of the same compound?
A: Its MMP-9 is 284 ± 101 µg/L.

Q: And the IL-6 ([2]; pioglitazone arm, baseline)?
A: Its IL-6 is 3.3 ± 0.5 ng/L.

Q: What about the MIF ([2]; pioglitazone arm, baseline) of the same compound?
A: Its MIF is 10.4 ± 5.3 µg/L.

Q: And the MMP-9 ([2]; pioglitazone arm, baseline)?
A: The MMP-9 was 344 ± 118 µg/L.

Q: What about the Adiponectin [2, 5] of the same compound?
A: Its Adiponectin is 22.1 ± 9.1 µg/mL.

Q: And the “Angiotensin II” value [2, 5]?
A: Its value is 8.0 ± 8.8 µg/L.

Q: And the “Complement factor C3” value [2, 5]?
A: Its value is 1.5 ± 0.3 g/L.

Q: And the Insulin [2, 5]?
A: Its Insulin is 12 ± 7 μU/ml.

Q: And the Intact proinsulin [2, 5]?
A: The Intact proinsulin was 19 ± 17 pmol/L.

Q: And the P-seclectin [2, 5]?
A: The P-seclectin was 93 ± 22 µg/L.

Q: What about the sCD40L [2, 5] of the same compound?
A: The sCD40L was 1.1 ± 1.1 µg/L.

Q: What about the Adiponectin ([2]; pioglitazone arm, baseline) of the same compound?
A: Its Adiponectin is 8.7 ± 3.5 µg/mL.

Q: What about the “Angiotensin II” value ([2]; pioglitazone arm, baseline) of the same compound?
A: Its value is 10.2 ± 9.2 µg/L.

Q: And the “Complement factor C3” value ([2]; pioglitazone arm, baseline)?
A: The value was 1.6 ± 0.4 g/L.

Q: What about the Insulin ([2]; pioglitazone arm, baseline) of the same compound?
A: Its Insulin is 17 ± 10 μU/ml.

Q: What about the Intact proinsulin ([2]; pioglitazone arm, baseline) of the same compound?
A: The Intact proinsulin was 30 ± 37 pmol/L.

Q: And the P-seclectin ([2]; pioglitazone arm, baseline)?
A: The P-seclectin was 95 ± 20 µg/L.

Q: And the sCD40L ([2]; pioglitazone arm, baseline)?
A: Its sCD40L is 1.6 ± 1.8 µg/L.

Q: And the “IL-6 mRNA expression” value [3, 6]?
A: The value was 1.05 ± 0.46.

Q: And the “IκB-β mRNA expression” value [3, 6]?
A: The value was 3.30 ± 2.41.

Q: What about the “MIF mRNA expression” value [3, 6] of the same compound?
A: The value was 0.84 ± 0.31.

Q: And the “MMP-9 mRNA expression” value [3, 6]?
A: Its value is 1.48 ± 1.18.

Q: What about the “RelA (p65 subunit of NF-κB) mRNA expression” value [3, 6] of the same compound?
A: The value was 0.95 ± 0.44.

Q: What about the “TNFα mRNA expression” value [3, 6] of the same compound?
A: The value was 1.70 ± 0.93.

Q: What about the “p105 (p50 subunit of NF-κB) mRNA expression” value [3, 6] of the same compound?
A: The value was 1.33 ± 0.46.

Q: What about the “IL-6 mRNA expression” value ([3]; pioglitazone arm, baseline) of the same compound?
A: The value was 1.13 ± 0.52.

Q: What about the “IκB-β mRNA expression” value ([3]; pioglitazone arm, baseline) of the same compound?
A: The value was 3.17 ± 2.05.

Q: And the “MIF mRNA expression” value ([3]; pioglitazone arm, baseline)?
A: Its value is 0.98 ± 0.40.

Q: And the “MMP-9 mRNA expression” value ([3]; pioglitazone arm, baseline)?
A: Its value is 2.29 ± 2.68.

Q: And the “RelA (p65 subunit of NF-κB) mRNA expression” value ([3]; pioglitazone arm, baseline)?
A: The value was 1.20 ± 0.74.

Q: What about the “TNFα mRNA expression” value ([3]; pioglitazone arm, baseline) of the same compound?
A: The value was 1.88 ± 1.20.

Q: And the “p105 (p50 subunit of NF-κB) mRNA expression” value ([3]; pioglitazone arm, baseline)?
A: The value was 1.63 ± 0.80.

Q: With `Cc1c(C)c2c(c(C)c1O)CCC(C)(COc1ccc(CC3SC(=O)NC3=O)cc1)O2` (stereo not drawn) [troglitazone] as the compound, how does the “Reason for being taken from the market” value [4] read?
A: Its value is “hepatotoxiciy”.
